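Five concentrations, 48 hours, 96-well plates. Abbreviation: GI50, concentration required for 50% inhibition of growth. TGI denotes the concentration required for complete inhibition of growth.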
Tests used:
Assay in all cases: NCI anticancer screen, dose series, 48 h
SF-539 CNS = tested on: SF-539 CNS
RXF 393 renal = tested on: RXF 393 renal
EKVX NSCLC = tested on: EKVX NSCLC
COLO 205 colon = tested on: COLO 205 colon
HCC-2998 colon = tested on: HCC-2998 colon
786-0 renal = tested on: 786-0 renal
NCI/ADR-RES ovarian = tested on: NCI/ADR-RES ovarian
SNB-75 CNS = tested on: SNB-75 CNS
UO-31 renal = tested on: UO-31 renal
SN12C renal = tested on: SN12C renal
T-47D breast = tested on: T-47D breast
HCT-116 colon = tested on: HCT-116 colon
M14 melanoma = tested on: M14 melanoma
NCI-H522 lung = tested on: NCI-H522 lung
TK-10 renal = tested on: TK-10 renal
MDA-MB-435 = tested on: MDA-MB-435
DU-145 prostate = tested on: DU-145 prostate
HOP-92 NSCLC = tested on: HOP-92 NSCLC
SF-268 CNS = tested on: SF-268 CNS
K-562 leukemia = tested on: K-562 leukemia
BT-549 breast = tested on: BT-549 breast
MALME-3M melanoma = tested on: MALME-3M melanoma
OVCAR-8 ovarian = tested on: OVCAR-8 ovarian
HL-60(TB) leukemia = tested on: HL-60(TB) leukemia
LOX IMVI melanoma = tested on: LOX IMVI melanoma
RPMI-8226 leukemia = tested on: RPMI-8226 leukemia
CAKI-1 renal = tested on: CAKI-1 renal
SK-MEL-28 melanoma = tested on: SK-MEL-28 melanoma
U251 CNS = tested on: U251 CNS

## CCn1c2ccccc2c2cc(/C=C(/C#N)C(N)=S)ccc21
SF-539 CNS
  TGI: 27.4 µM
RXF 393 renal
  GI50: 16.5 µM
  TGI: 39 µM
EKVX NSCLC
  GI50: 17.7 µM
  TGI: > 58.4 µM
COLO 205 colon
  GI50: 13.2 µM
  TGI: > 45.7 µM
HCC-2998 colon
  GI50: 2880 nM
  TGI: 9 µM
786-0 renal
  GI50: 16.1 µM
  TGI: 39.4 µM
NCI/ADR-RES ovarian
  GI50: 18 µM
  TGI: 38.5 µM
SNB-75 CNS
  GI50: 18.8 µM
  TGI: 46.1 µM
UO-31 renal
  GI50: 20.4 µM
  TGI: > 60.6 µM
SN12C renal
  GI50: 11.8 µM
  TGI: 29.9 µM
T-47D breast
  GI50: 4.84 µM
HCT-116 colon
  GI50: 5.79 µM
  TGI: 20.9 µM
M14 melanoma
  GI50: 18.2 µM
  TGI: 38.8 µM
NCI-H522 lung
  GI50: 26.9 µM
  TGI: > 68.4 µM
TK-10 renal
  GI50: 216 nM
  TGI: 1820 nM
MDA-MB-435
  GI50: 6.06 µM
  TGI: 29.6 µM
DU-145 prostate
  GI50: 16.1 µM
  TGI: 63.6 µM
HOP-92 NSCLC
  GI50: 14.6 µM
  TGI: 46.9 µM
SF-268 CNS
  GI50: 16.3 µM
  TGI: 40.6 µM
K-562 leukemia
  GI50: 12.8 µM
  TGI: > 100 µM
BT-549 breast
  GI50: 18.6 µM
  TGI: 36.6 µM
MALME-3M melanoma
  GI50: 6.19 µM
  TGI: 48.5 µM
OVCAR-8 ovarian
  GI50: 20.5 µM
  TGI: 56.4 µM
HL-60(TB) leukemia
  GI50: 74.4 µM
  TGI: > 100 µM
LOX IMVI melanoma
  GI50: 13 µM
  TGI: 26.1 µM
RPMI-8226 leukemia
  GI50: 35.4 µM
  TGI: > 100 µM
CAKI-1 renal
  GI50: 1120 nM
  TGI: > 35.4 µM
SK-MEL-28 melanoma
  GI50: 17.7 µM
  TGI: 47.2 µM
U251 CNS
  GI50: 4.85 µM
  TGI: 23.5 µM
